The values that follow come from patent US20240100170A1, “CYCLIC-AMP RESPONSE ELEMENT BINDING PROTEIN (CBP) AND/OR ADENOVIRAL E1A BINDING PROTEIN OF 300 KDA (P300) DEGRADATION COMPOUNDS AND METHODS OF USE” (CULLGEN (SHANGHAI), INC., priority 2020, published 2024).

For assay [1], the system named is LNCaP prostate cancer cell. Briefly: LNCaP cell viability (CellTiter-Glo). Format: cell-based. The conditions noted are these: Homo sapiens, 72 h; LNCaP cell viability, 3 days, CellTiter-Glo; Table 4. In a few lines:
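CellTiter-Glo luminescence measured three days after dosing with a 12-point 3-fold compound dilution series. LNCaP cells seeded at 5000/well in RPMI 1640 with 10% FBS; data normalized to untreated controls and IC50 fitted by nonlinear least-squares regression.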
A general note: In ATP-based viability assays light output follows the ATP content of the culture.

The target in a further assay is P300 (Homo sapiens, UniProt Q09472). Briefly: percentage of inhibition (degradation) of p300 at 10 nM, Tables 2-4. Format: cell-based. Details: LNCaP or 22RV1 cells that express CBP/P300 proteins were treated with GNE-781 or the bivalent compounds; endogenous in cells; host or cells: LNCaP or 22RV1 (not given). The conditions noted are these: read-out: Degradation (10 nM). In a few lines: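 Degradation was measured at 10 nM. Cells or tissue were lysed in RIPA with protease and phosphatase inhibitors for 30 min at 4 °C and cleared, and protein was quantified by BCA. Lysates were resolved by SDS-PAGE, detected by chemiluminescent immunoblot, and bands were quantified by densitometry.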

Like-named read-outs stand apart in the source and are kept apart here.

P300, sequence (Q09472 whole entry): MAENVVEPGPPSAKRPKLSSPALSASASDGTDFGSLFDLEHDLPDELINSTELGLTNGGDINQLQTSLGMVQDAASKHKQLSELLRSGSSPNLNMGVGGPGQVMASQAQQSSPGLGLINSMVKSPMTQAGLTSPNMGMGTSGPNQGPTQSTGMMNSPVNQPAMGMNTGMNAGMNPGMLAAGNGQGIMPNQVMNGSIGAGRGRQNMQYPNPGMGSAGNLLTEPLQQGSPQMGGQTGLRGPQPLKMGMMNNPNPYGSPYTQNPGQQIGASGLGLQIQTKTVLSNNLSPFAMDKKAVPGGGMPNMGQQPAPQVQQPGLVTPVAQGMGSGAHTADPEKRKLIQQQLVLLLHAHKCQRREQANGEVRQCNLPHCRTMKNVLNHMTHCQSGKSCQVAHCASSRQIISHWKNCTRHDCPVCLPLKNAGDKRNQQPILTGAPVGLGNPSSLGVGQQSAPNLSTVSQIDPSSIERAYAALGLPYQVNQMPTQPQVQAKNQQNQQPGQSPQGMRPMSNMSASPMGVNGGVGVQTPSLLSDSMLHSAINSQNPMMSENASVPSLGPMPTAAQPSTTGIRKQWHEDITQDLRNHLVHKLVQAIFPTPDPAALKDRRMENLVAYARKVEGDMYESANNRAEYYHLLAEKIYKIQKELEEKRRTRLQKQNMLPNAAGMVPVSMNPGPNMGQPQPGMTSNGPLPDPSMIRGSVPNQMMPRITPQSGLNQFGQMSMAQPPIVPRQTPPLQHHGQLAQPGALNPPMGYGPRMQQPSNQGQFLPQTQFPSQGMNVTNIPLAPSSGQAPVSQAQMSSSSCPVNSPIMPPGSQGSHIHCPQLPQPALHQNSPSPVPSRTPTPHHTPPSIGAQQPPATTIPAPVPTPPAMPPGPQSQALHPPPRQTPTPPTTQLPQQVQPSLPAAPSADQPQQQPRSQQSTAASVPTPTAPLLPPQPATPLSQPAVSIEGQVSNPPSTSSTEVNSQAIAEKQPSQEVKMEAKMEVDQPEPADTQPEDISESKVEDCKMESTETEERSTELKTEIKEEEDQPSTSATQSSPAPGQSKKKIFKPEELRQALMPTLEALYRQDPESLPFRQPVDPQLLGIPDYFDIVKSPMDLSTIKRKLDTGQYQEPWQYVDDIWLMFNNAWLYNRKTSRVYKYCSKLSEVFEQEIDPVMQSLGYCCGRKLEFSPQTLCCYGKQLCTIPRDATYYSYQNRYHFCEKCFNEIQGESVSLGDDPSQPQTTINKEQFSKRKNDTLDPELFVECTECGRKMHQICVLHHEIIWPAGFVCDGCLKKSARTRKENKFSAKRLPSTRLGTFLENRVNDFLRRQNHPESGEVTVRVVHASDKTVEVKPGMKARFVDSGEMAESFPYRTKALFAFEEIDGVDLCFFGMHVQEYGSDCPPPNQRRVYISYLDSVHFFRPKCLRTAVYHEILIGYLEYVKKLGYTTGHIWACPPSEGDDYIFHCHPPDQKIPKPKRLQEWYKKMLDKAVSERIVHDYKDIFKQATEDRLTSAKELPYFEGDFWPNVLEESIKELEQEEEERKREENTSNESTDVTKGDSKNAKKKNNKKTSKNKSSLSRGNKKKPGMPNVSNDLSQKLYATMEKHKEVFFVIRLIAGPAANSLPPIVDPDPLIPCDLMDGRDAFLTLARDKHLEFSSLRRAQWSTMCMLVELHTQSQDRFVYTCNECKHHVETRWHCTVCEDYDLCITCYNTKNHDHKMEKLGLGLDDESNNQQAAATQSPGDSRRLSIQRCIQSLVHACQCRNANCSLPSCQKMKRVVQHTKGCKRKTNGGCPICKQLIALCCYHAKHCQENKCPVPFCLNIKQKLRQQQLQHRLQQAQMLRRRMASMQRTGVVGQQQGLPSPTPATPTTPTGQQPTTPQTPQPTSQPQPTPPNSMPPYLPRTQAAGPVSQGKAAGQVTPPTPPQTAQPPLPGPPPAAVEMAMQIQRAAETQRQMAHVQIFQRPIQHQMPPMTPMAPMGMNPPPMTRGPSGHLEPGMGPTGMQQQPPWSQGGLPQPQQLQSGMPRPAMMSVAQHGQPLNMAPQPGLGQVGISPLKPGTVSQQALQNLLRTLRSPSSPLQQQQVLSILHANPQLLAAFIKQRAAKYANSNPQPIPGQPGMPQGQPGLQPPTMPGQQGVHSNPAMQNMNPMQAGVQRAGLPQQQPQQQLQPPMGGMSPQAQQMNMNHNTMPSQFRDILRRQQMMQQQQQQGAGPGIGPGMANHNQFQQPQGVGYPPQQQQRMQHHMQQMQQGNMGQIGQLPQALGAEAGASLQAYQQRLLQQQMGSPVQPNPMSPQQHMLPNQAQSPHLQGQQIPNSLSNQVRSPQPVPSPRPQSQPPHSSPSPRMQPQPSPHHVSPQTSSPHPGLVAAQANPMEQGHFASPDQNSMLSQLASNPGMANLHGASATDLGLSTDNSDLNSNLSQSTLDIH

Broadly, the IC50 is the concentration that gives 50% inhibition. In assay [1], `CC(=O)N1CCc2c(c(N3CCCc4cc(-c5cnn(C)c5)c(C(F)F)cc43)nn2C2CCN(Cc3ccc(CNc4cccc5c4CN(C4CCC(=O)NC4=O)C5=O)nc3)CC2)C1` (stereo not drawn) [P-196, 3-(4-(((5-((4-(5-acetyl-3-(7-(difluoromethyl)-6-(1-methyl-1H-pyrazol-4-yl)-3,4-dihydroquinolin-1(2H)-yl)-4,5,6,7-tetrahydro-1H-pyrazolo[4,3-c]pyridin-1-yl)piperidin-1-yl)methyl)pyridin-2-yl)methyl)amino)-1-oxoisoindolin-2-yl)piperidine-2,6-dione] had an IC50 of 2.4 nM. For the same molecule, the inhibition at 0.01 µM on P300 (p300, 10 nM, Table 4) is > 80%.

Consider `CC(=O)N1CCc2c(c(N3CCCc4cc(-c5cnn(C)c5)c(C(F)F)cc43)nn2C2CCN(CCN3CCOC(CNc4cccc5c4C(=O)N(C4CCC(=O)NC4=O)C5)C3)CC2)C1` (stereo not drawn) [P-198, 3-(7-(((4-(2-(4-(5-acetyl-3-(7-(difluoromethyl)-6-(1-methyl-1H-pyrazol-4-yl)-3,4-dihydroquinolin-1(2H)-yl)-4,5,6,7-tetrahydro-1H-pyrazolo[4,3-c]pyridin-1-yl)piperidin-1-yl)ethyl)morpholin-2-yl)methyl)amino)-1-oxoisoindolin-2-yl)piperidine-2,6-dione], for which the IC50 in assay [1] is 2.4 nM. For the same molecule, the inhibition at 0.01 µM at P300 is > 80%.

Molecule `CC(=O)N1CCc2c(c(N3CCCc4cc(-c5cnn(C)c5)c(C(F)F)cc43)nn2C2CCN(Cc3ccc(CNc4cccc5c4CN(C4CCC(=O)NC4=O)C5=O)cc3)CC2)C1` (stereo not drawn) [P-200] displayed an IC50 in assay [1] of 7.9 nM. The inhibition at 0.01 µM at P300 (p300, 10 nM, Table 4) lay in the range of 50 to 80%.

Molecule `CC(=O)N1CCc2c(c(N3CCCc4cc(-c5cnn(C)c5)c(C(F)F)cc43)nn2C2CCN(CCCCC3CN(c4cccc5c4C(=O)N(C4CCC(=O)NC4=O)C5=O)C3)CC2)C1` (stereo not drawn) [P-201, 4-(3-(4-(4-(5-acetyl-3-(7-(difluoromethyl)-6-(1-methyl-1H-pyrazol-4-yl)-3,4-dihydroquinolin-1(2H)-yl)-4,5,6,7-tetrahydro-1H-pyrazolo[4,3-c]pyridin-1-yl)piperidin-1-yl)butyl)azetidin-1-yl)-2-(2,6-dioxopiperidin-3-yl)isoindoline-1,3-dione] came in with an IC50 in assay [1] of 10.4 nM. Also, on P300 (p300, 10 nM, Table 4), the inhibition at 0.01 µM is > 80%.

Molecule `CC(=O)N1CCc2c(c(N3CCCc4cc(-c5cnn(C)c5)c(C(F)F)cc43)nn2C2CCN(Cc3cccc(COc4cccc5c4CN(C4CCC(=O)NC4=O)C5=O)c3)CC2)C1` (stereo not drawn) [P-202, 3-(4-((3-((4-(5-acetyl-3-(7-(difluoromethyl)-6-(1-methyl-1H-pyrazol-4-yl)-3,4-dihydroquinolin-1(2H)-yl)-4,5,6,7-tetrahydro-1H-pyrazolo[4,3-c]pyridin-1-yl)piperidin-1-yl)methyl)benzyl)oxy)-1-oxoisoindolin-2-yl)piperidine-2,6-dione] displayed an IC50 in assay [1] of 3.1 nM. At P300 (p300, 10 nM, Table 4), the inhibition at 0.01 µM was 50 to 80%.

`CC(=O)N1CCc2c(c(N3CCCc4cc(-c5cnn(C)c5)c(C(F)F)cc43)nn2C2CCN(C(=O)CCN3CCC(Cn4c(=O)n(C5CCC(=O)NC5=O)c5ccccc54)CC3)CC2)C1` (stereo not drawn) [P-205, 3-(3-((1-(3-(4-(5-acetyl-3-(7-(difluoromethyl)-6-(1-methyl-1H-pyrazol-4-yl)-3,4-dihydroquinolin-1(2H)-yl)-4,5,6,7-tetrahydro-1H-pyrazolo[4,3-c]pyridin-1-yl)piperidin-1-yl)-3-oxopropyl)piperidin-4-yl)methyl)-2-oxo-2,3-dihydro-1H-benzo[d]imidazol-1-yl)piperidine-2,6-dione] gave an IC50 in assay [1] of 158 nM. Also, the inhibition at 0.01 µM on P300 (p300, 10 nM, Table 4) is < 20%.
